Experimental data taken from the NIST ThermoML archive (doi:10.1021/je049655w).
“And” between values parts separate entries of the source, which are not always exact repeats. Equal values may be shown once. Numbers after ± are expanded uncertainties.

Columns and labels:
[1] = refractive index (Na D-line) (dimensionless); conditions: 298.15 K; 101.33 kPa; Liquid; Standard Abbe refractometry
[2] = 100.8 kPa, Liquid
[3] = xn = mol fraction of the nth substance listed; conditions: 100.8 kPa, Liquid

CCC(C)=O [butanone]
refractive index [1]: 1.37623 ± 0.00072 | mass density ([2]; 298.15 K): 799.7 ± 0.3 kg/m3 | viscosity ([2]; 298.15 K): 0.378 ± 0.008 mPa·s | mass density ([2]; 308.15 K): 789.2 ± 0.3 kg/m3 | viscosity ([2]; 308.15 K): 0.341 ± 0.007 mPa·s | mass density ([2]; 318.15 K): 778.4 ± 0.3 kg/m3 | viscosity ([2]; 318.15 K): 0.307 ± 0.007 mPa·s

CCO [ethanol]
refractive index [1]: 1.35949 ± 0.00072 | mass density ([2]; 298.15 K): 785.1 ± 0.3 kg/m3 | viscosity ([2]; 298.15 K): 1.088 ± 0.021 mPa·s | mass density ([2]; 308.15 K): 776.5 ± 0.3 kg/m3 | viscosity ([2]; 308.15 K): 0.904 ± 0.018 mPa·s | mass density ([2]; 318.15 K): 767.7 ± 0.3 kg/m3 | viscosity ([2]; 318.15 K): 0.763 ± 0.015 mPa·s

CC(C)CC(C)(C)C [2,2,4-trimethylpentane]
refractive index [1]: 1.38902 ± 0.00072 | mass density ([2]; 298.15 K): 687.8 ± 0.4 kg/m3 | viscosity ([2]; 298.15 K): 0.474 ± 0.01 mPa·s | mass density ([2]; 308.15 K): 679.5 ± 0.4 kg/m3 | viscosity ([2]; 308.15 K): 0.422 ± 0.009 mPa·s and 0.426 ± 0.009 mPa·s | mass density ([2]; 318.15 K): 671 ± 0.4 kg/m3 | viscosity ([2]; 318.15 K): 0.382 ± 0.008 mPa·s

CC(C)CC(C)(C)C [2,2,4-trimethylpentane] + CCO
mass density ([3]; 298.15 K, x2 = 0): 687.8 ± 0.4 kg/m3 | viscosity ([3]; 298.15 K, x2 = 0): 0.474 ± 0.01 mPa·s | mass density ([3]; 298.15 K, x2 = 0.05): 688.8 ± 0.4 kg/m3 | viscosity ([3]; 298.15 K, x2 = 0.05): 0.476 ± 0.01 mPa·s | mass density ([3]; 298.15 K, x2 = 0.1): 690.3 ± 0.4 kg/m3 | viscosity ([3]; 298.15 K, x2 = 0.1): 0.478 ± 0.01 mPa·s | mass density ([3]; 298.15 K, x2 = 0.15): 692.1 ± 0.4 kg/m3 | viscosity ([3]; 298.15 K, x2 = 0.15): 0.48 ± 0.01 mPa·s | mass density ([3]; 298.15 K, x2 = 0.2): 694 ± 0.4 kg/m3 | viscosity ([3]; 298.15 K, x2 = 0.2): 0.484 ± 0.01 mPa·s | mass density ([3]; 298.15 K, x2 = 0.25): 696.2 ± 0.4 kg/m3 | viscosity ([3]; 298.15 K, x2 = 0.25): 0.494 ± 0.01 mPa·s | mass density ([3]; 298.15 K, x2 = 0.3): 698.5 ± 0.3 kg/m3 | viscosity ([3]; 298.15 K, x2 = 0.3): 0.507 ± 0.01 mPa·s | mass density ([3]; 298.15 K, x2 = 0.35): 701.1 ± 0.3 kg/m3 | viscosity ([3]; 298.15 K, x2 = 0.35): 0.521 ± 0.011 mPa·s | mass density ([3]; 298.15 K, x2 = 0.4): 704 ± 0.3 kg/m3 | viscosity ([3]; 298.15 K, x2 = 0.4): 0.54 ± 0.011 mPa·s | mass density ([3]; 298.15 K, x2 = 0.45): 707.1 ± 0.3 kg/m3 | viscosity ([3]; 298.15 K, x2 = 0.45): 0.561 ± 0.011 mPa·s | mass density ([3]; 298.15 K, x2 = 0.5): 710.6 ± 0.3 kg/m3 | viscosity ([3]; 298.15 K, x2 = 0.5): 0.586 ± 0.012 mPa·s | mass density ([3]; 298.15 K, x2 = 0.55): 714.5 ± 0.3 kg/m3 | viscosity ([3]; 298.15 K, x2 = 0.55): 0.613 ± 0.012 mPa·s | mass density ([3]; 298.15 K, x2 = 0.6): 718.8 ± 0.3 kg/m3 | viscosity ([3]; 298.15 K, x2 = 0.6): 0.643 ± 0.013 mPa·s | mass density ([3]; 298.15 K, x2 = 0.65): 723.6 ± 0.3 kg/m3 | viscosity ([3]; 298.15 K, x2 = 0.65): 0.678 ± 0.014 mPa·s | mass density ([3]; 298.15 K, x2 = 0.7): 729.1 ± 0.3 kg/m3 | viscosity ([3]; 298.15 K, x2 = 0.7): 0.718 ± 0.014 mPa·s | mass density ([3]; 298.15 K, x2 = 0.75): 735.4 ± 0.3 kg/m3 | viscosity ([3]; 298.15 K, x2 = 0.75): 0.76 ± 0.015 mPa·s | mass density ([3]; 298.15 K, x2 = 0.8): 742.3 ± 0.3 kg/m3 | viscosity ([3]; 298.15 K, x2 = 0.8): 0.806 ± 0.016 mPa·s | mass density ([3]; 298.15 K, x2 = 0.85): 750.5 ± 0.3 kg/m3 | viscosity ([3]; 298.15 K, x2 = 0.85): 0.861 ± 0.017 mPa·s | mass density ([3]; 298.15 K, x2 = 0.9): 760.1 ± 0.3 kg/m3 | viscosity ([3]; 298.15 K, x2 = 0.9): 0.929 ± 0.018 mPa·s | mass density ([3]; 298.15 K, x2 = 0.95): 771.5 ± 0.3 kg/m3 | viscosity ([3]; 298.15 K, x2 = 0.95): 0.999 ± 0.02 mPa·s | mass density ([3]; 308.15 K, x2 = 0): 679.5 ± 0.4 kg/m3 | viscosity ([3]; 308.15 K, x2 = 0): 0.422 ± 0.009 mPa·s | mass density ([3]; 308.15 K, x2 = 0.05): 680.4 ± 0.4 kg/m3 | viscosity ([3]; 308.15 K, x2 = 0.05): 0.424 ± 0.009 mPa·s | mass density ([3]; 308.15 K, x2 = 0.1): 681.8 ± 0.4 kg/m3 | viscosity ([3]; 308.15 K, x2 = 0.1): 0.426 ± 0.009 mPa·s | mass density ([3]; 308.15 K, x2 = 0.15): 683.5 ± 0.4 kg/m3 | viscosity ([3]; 308.15 K, x2 = 0.15): 0.429 ± 0.009 mPa·s | mass density ([3]; 308.15 K, x2 = 0.2): 685.4 ± 0.4 kg/m3 | viscosity ([3]; 308.15 K, x2 = 0.2): 0.433 ± 0.009 mPa·s | mass density ([3]; 308.15 K, x2 = 0.25): 687.5 ± 0.4 kg/m3 | viscosity ([3]; 308.15 K, x2 = 0.25): 0.439 ± 0.009 mPa·s | mass density ([3]; 308.15 K, x2 = 0.3): 689.8 ± 0.4 kg/m3 | viscosity ([3]; 308.15 K, x2 = 0.3): 0.45 ± 0.009 mPa·s | mass density ([3]; 308.15 K, x2 = 0.35): 692.4 ± 0.4 kg/m3 | viscosity ([3]; 308.15 K, x2 = 0.35): 0.462 ± 0.01 mPa·s | mass density ([3]; 308.15 K, x2 = 0.4): 695.2 ± 0.4 kg/m3 | viscosity ([3]; 308.15 K, x2 = 0.4): 0.474 ± 0.01 mPa·s | mass density ([3]; 308.15 K, x2 = 0.45): 698.3 ± 0.3 kg/m3 | viscosity ([3]; 308.15 K, x2 = 0.45): 0.487 ± 0.01 mPa·s | mass density ([3]; 308.15 K, x2 = 0.5): 701.8 ± 0.3 kg/m3 | viscosity ([3]; 308.15 K, x2 = 0.5): 0.506 ± 0.01 mPa·s | mass density ([3]; 308.15 K, x2 = 0.55): 705.7 ± 0.3 kg/m3 | viscosity ([3]; 308.15 K, x2 = 0.55): 0.527 ± 0.011 mPa·s | mass density ([3]; 308.15 K, x2 = 0.6): 710 ± 0.3 kg/m3 | viscosity ([3]; 308.15 K, x2 = 0.6): 0.55 ± 0.011 mPa·s | mass density ([3]; 308.15 K, x2 = 0.65): 714.9 ± 0.3 kg/m3 | viscosity ([3]; 308.15 K, x2 = 0.65): 0.576 ± 0.012 mPa·s | mass density ([3]; 308.15 K, x2 = 0.7): 720.3 ± 0.3 kg/m3 | viscosity ([3]; 308.15 K, x2 = 0.7): 0.606 ± 0.012 mPa·s | mass density ([3]; 308.15 K, x2 = 0.75): 726.6 ± 0.3 kg/m3 | viscosity ([3]; 308.15 K, x2 = 0.75): 0.641 ± 0.013 mPa·s | mass density ([3]; 308.15 K, x2 = 0.8): 733.6 ± 0.3 kg/m3 | viscosity ([3]; 308.15 K, x2 = 0.8): 0.677 ± 0.014 mPa·s | mass density ([3]; 308.15 K, x2 = 0.85): 741.7 ± 0.3 kg/m3 | viscosity ([3]; 308.15 K, x2 = 0.85): 0.72 ± 0.014 mPa·s | mass density ([3]; 308.15 K, x2 = 0.9): 751.4 ± 0.3 kg/m3 | viscosity ([3]; 308.15 K, x2 = 0.9): 0.768 ± 0.015 mPa·s | mass density ([3]; 308.15 K, x2 = 0.95): 762.8 ± 0.3 kg/m3 | viscosity ([3]; 308.15 K, x2 = 0.95): 0.829 ± 0.016 mPa·s | mass density ([3]; 318.15 K, x2 = 0): 671 ± 0.4 kg/m3 | viscosity ([3]; 318.15 K, x2 = 0): 0.382 ± 0.008 mPa·s | mass density ([3]; 318.15 K, x2 = 0.05): 671.7 ± 0.4 kg/m3 | viscosity ([3]; 318.15 K, x2 = 0.05): 0.384 ± 0.008 mPa·s | mass density ([3]; 318.15 K, x2 = 0.1): 673 ± 0.4 kg/m3 | viscosity ([3]; 318.15 K, x2 = 0.1): 0.385 ± 0.008 mPa·s | mass density ([3]; 318.15 K, x2 = 0.15): 674.7 ± 0.4 kg/m3 | viscosity ([3]; 318.15 K, x2 = 0.15): 0.389 ± 0.008 mPa·s | mass density ([3]; 318.15 K, x2 = 0.2): 676.5 ± 0.4 kg/m3 | viscosity ([3]; 318.15 K, x2 = 0.2): 0.391 ± 0.008 mPa·s | mass density ([3]; 318.15 K, x2 = 0.25): 678.6 ± 0.4 kg/m3 | viscosity ([3]; 318.15 K, x2 = 0.25): 0.397 ± 0.008 mPa·s | mass density ([3]; 318.15 K, x2 = 0.3): 680.9 ± 0.4 kg/m3 | viscosity ([3]; 318.15 K, x2 = 0.3): 0.404 ± 0.008 mPa·s | mass density ([3]; 318.15 K, x2 = 0.35): 683.4 ± 0.4 kg/m3 | viscosity ([3]; 318.15 K, x2 = 0.35): 0.412 ± 0.009 mPa·s | mass density ([3]; 318.15 K, x2 = 0.4): 686.2 ± 0.4 kg/m3 | viscosity ([3]; 318.15 K, x2 = 0.4): 0.422 ± 0.009 mPa·s | mass density ([3]; 318.15 K, x2 = 0.45): 689.3 ± 0.4 kg/m3 | viscosity ([3]; 318.15 K, x2 = 0.45): 0.433 ± 0.009 mPa·s | mass density ([3]; 318.15 K, x2 = 0.5): 692.8 ± 0.4 kg/m3 | viscosity ([3]; 318.15 K, x2 = 0.5): 0.446 ± 0.009 mPa·s | mass density ([3]; 318.15 K, x2 = 0.55): 696.6 ± 0.4 kg/m3 | viscosity ([3]; 318.15 K, x2 = 0.55): 0.463 ± 0.01 mPa·s | mass density ([3]; 318.15 K, x2 = 0.6): 700.9 ± 0.3 kg/m3 | viscosity ([3]; 318.15 K, x2 = 0.6): 0.48 ± 0.01 mPa·s | mass density ([3]; 318.15 K, x2 = 0.65): 705.8 ± 0.3 kg/m3 | viscosity ([3]; 318.15 K, x2 = 0.65): 0.5 ± 0.01 mPa·s | mass density ([3]; 318.15 K, x2 = 0.7): 711.3 ± 0.3 kg/m3 | viscosity ([3]; 318.15 K, x2 = 0.7): 0.524 ± 0.011 mPa·s | mass density ([3]; 318.15 K, x2 = 0.75): 717.6 ± 0.3 kg/m3 | viscosity ([3]; 318.15 K, x2 = 0.75): 0.55 ± 0.011 mPa·s | mass density ([3]; 318.15 K, x2 = 0.8): 724.7 ± 0.3 kg/m3 | viscosity ([3]; 318.15 K, x2 = 0.8): 0.58 ± 0.012 mPa·s | mass density ([3]; 318.15 K, x2 = 0.85): 732.9 ± 0.3 kg/m3 | viscosity ([3]; 318.15 K, x2 = 0.85): 0.616 ± 0.012 mPa·s | mass density ([3]; 318.15 K, x2 = 0.9): 742.5 ± 0.3 kg/m3 | viscosity ([3]; 318.15 K, x2 = 0.9): 0.657 ± 0.013 mPa·s | mass density ([3]; 318.15 K, x2 = 0.95): 753.9 ± 0.3 kg/m3 | viscosity ([3]; 318.15 K, x2 = 0.95): 0.702 ± 0.014 mPa·s
